Data taken from ChEMBL document CHEMBL5126520, “Recent research results have converted gp120 binders to a therapeutic option for the treatment of HIV-1 infection. A medicinal chemistry point of view” (Eur J Med Chem, 2022).
Each block holds one molecule with its values, some of them ahead of it. Starred links: 1 amine or outer side, 2 acyl side, 3 side chain; linkers in the order of their positions; H or OH if unused. Positions of bridges follow the written chain, without caps; N, C: chain ends. Non-standard residues stand in square brackets, D forms with d. Residues, ends and D or L forms follow the SMILES beside them. X1 = O=C([C@@H]1CC(n2cc(-c3ccc(-c4cccs4)cc3)nn2)CN1[*:1])[*:2]

Key:
[1] = test system: Human immunodeficiency virus 1; assay: Antiviral activity against HIV-1 IIIB(X4) infected in human MT2 cells assessed as reduction in p24 antigen level preincubated for 30 mins followed by infection with cells and measured after 3 to 4 days by ELISA; type: functional, organism-based; conditions: Human immunodeficiency virus 1, IIIB(X4)
[2] = test system: Human immunodeficiency virus 1; assay: Antiviral activity against HIV-1 Bal(R5) infected in human CEMx174 5.25M7 cells assessed as reduction in p24 antigen level preincubated for 30 mins followed by infection with cells and measured after 3 to 4 days by ELISA; type: functional, organism-based; conditions: Human immunodeficiency virus 1, Bal(R5)
[3] = Cytotoxicity against human MT2 cells assessed as reduction in cell viability incubated for 4 days by XTT assay; type: toxicity, cell-based; conditions: time 4 day
[4] = test system: Human immunodeficiency virus 1; assay: Antiviral activity against HIV-1 pseudotyped virus expressing HXB-2 Env proteins infected in human TZM-bl cells assessed as inhibition of viral entry preincubated for 30 mins followed by infection with cells and measured after 3 days by luciferase based analysis; type: functional, organism-based; conditions: Human immunodeficiency virus 1, TZM-bl
[5] = Selectivity index, ratio of CC50 for Cytotoxicity against human TZM-bl cells to EC50 for antiviral activity against HIV-1 pseudotyped virus expressing HXB-2 Env proteins infected in human TZM-bl cells; type: toxicity, cell-based; conditions: read-out: Ratio CC50/EC50
[6] = test system: Human immunodeficiency virus 1; assay: Antiviral activity against HIV-1 IIIB infected in human MT2 cells assessed as reduction in p24 antigen level incubated for 1 hr by ELISA; type: functional, organism-based; conditions: Human immunodeficiency virus 1, IIIB, MT2, 1 h
[7] = Selectivity index, ratio of CC50 for cytotoxicity against human MT2 cells to EC50 for antiviral activity against HIV-1 IIIB infected in human MT2 cells; type: toxicity, cell-based; conditions: read-out: Ratio CC50/EC50
[8] = test system: Human immunodeficiency virus 1; assay: Antiviral activity against laboratory-adapted HIV-1 NL4-3 infected in human TZM-bl cells incubated for 2 days by luciferase based analysis; type: functional, organism-based; conditions: Human immunodeficiency virus 1, NL4-3, TZM-bl, 48 h
[9] = test system: Human immunodeficiency virus 1; assay: Antiviral activity against HIV-1 CH58TF infected in human TZM-bl cells assessed as neutralization viral infection pretreated for 1 hr followed by infection with cells and measured after 48 hrs by luciferase assay; type: functional, organism-based; conditions: Human immunodeficiency virus 1, CH58TF
[10] = test system: Human immunodeficiency virus 1; assay: Antiviral activity against HIV-1 JR-FL; type: functional, organism-based; conditions: Human immunodeficiency virus 1, JR-FL
[11] = test system: Human immunodeficiency virus 1; assay: Antiviral activity against HIV-1 YU-2 assessed as inhibition of viral entry; type: functional, organism-based; conditions: Human immunodeficiency virus 1, YU-2
[12] = Cytotoxicity against human TZM-bl cells assessed as reduction in cell viability incubated for 3 days by MTS assay; type: toxicity, cell-based; conditions: time 3 day
[13] = Cytotoxicity against human MT2 cells assessed as reduction in cell viability incubated for 4 days by MTS assay; type: toxicity, cell-based; conditions: time 4 day
[14] = test system: Human immunodeficiency virus 1; assay: Antiviral activity against HIV-1 IIIB infected in human MT2 cells assessed as inhibition of p24 production preincubated for 30 mins followed by infection with cells and measured after 4 days by ELISA; type: functional, organism-based; conditions: Human immunodeficiency virus 1, IIIB
[15] = test system: Human immunodeficiency virus 1; assay: Antiviral activity against HIV-1 IIIB(X4) infected in human CEMx174 5.25M7 cells assessed as inactivation of HIV-1 free virions by measuring p24 antigen level preincubated for 1 hr followed by infection with cells and measured after 3 to 4 days by ELISA; type: functional, organism-based; conditions: Human immunodeficiency virus 1, IIIB(X4)
[16] = Cytotoxicity against human MT2 cells assessed as reduction in cell viability incubated for 48 hrs by CCK-8 assay; type: toxicity, cell-based
[17] = Cytotoxicity against human CEMx174 5.25M7 cells assessed as reduction in cell viability incubated for 48 hrs by CCK-8 assay; type: toxicity, cell-based
[18] = test system: Human immunodeficiency virus 1; assay: Antiviral activity against HIV-1 Bal(R5) infected in human CEMx174 5.25M7 cells assessed as inactivation of HIV-1 free virions by measuring p24 antigen level preincubated for 1 hr followed by infection with cells and measured after 3 to 4 days by ELISA; type: functional, organism-based; conditions: Human immunodeficiency virus 1, Bal(R5)
[19] = molecular target: Envelope glycoprotein gp160 (Human immunodeficiency virus 1, UniProt Q6QLK5); assay: Inhibition of HIV1 gp120 interaction with CD4 pretreated for 1 hr followed by TMB substrate addition and measured after 10 mins by ELISA
Chain of Envelope glycoprotein gp160 (Q6QLK5 whole entry): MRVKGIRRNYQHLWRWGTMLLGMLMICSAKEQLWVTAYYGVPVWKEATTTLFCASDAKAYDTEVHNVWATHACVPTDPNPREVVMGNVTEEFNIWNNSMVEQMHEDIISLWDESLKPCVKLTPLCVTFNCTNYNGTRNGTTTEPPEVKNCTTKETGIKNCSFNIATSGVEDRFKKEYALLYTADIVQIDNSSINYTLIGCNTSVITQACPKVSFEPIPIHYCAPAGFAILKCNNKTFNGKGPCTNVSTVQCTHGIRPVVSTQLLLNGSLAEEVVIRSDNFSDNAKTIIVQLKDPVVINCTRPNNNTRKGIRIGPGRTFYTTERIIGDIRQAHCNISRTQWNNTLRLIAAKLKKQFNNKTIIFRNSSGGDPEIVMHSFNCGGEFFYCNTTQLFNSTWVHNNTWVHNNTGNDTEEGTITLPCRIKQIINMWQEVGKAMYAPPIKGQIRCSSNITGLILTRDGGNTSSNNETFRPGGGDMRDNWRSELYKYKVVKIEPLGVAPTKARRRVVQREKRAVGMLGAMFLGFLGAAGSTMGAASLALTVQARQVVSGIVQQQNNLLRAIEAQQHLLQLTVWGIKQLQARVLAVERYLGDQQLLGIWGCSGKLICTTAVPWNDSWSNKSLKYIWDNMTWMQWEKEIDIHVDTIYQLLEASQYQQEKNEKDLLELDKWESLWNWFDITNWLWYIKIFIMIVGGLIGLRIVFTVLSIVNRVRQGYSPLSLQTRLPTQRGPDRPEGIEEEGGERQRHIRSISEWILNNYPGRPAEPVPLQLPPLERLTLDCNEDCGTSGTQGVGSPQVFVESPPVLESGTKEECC

[20] = test system: Human immunodeficiency virus 1; assay: Antiviral activity against HIV-1 Bal.01 infected in HOS.T4.R5 cells preincubated for 45 mins followed by infection with cells and measured 24 hrs post infection by luminescence based analysis; type: functional, organism-based; conditions: Human immunodeficiency virus 1, Bal.01, HOS.T4.R5
[21] = Cytotoxicity against HOS.T4.R5 cells assessed as reduction in cell viability incubated for 24 hrs by WST-1 assay; type: toxicity, cell-based; conditions: human

Structure (SMILES): CC1(C)CC(NC(=O)C(=O)Nc2ccc(Cl)c(F)c2)CC(C)(C)N1
IC50 [1]: 830 nM
IC50 [2]: 830 nM

Structure (SMILES): CC1(C)CC(NC(=O)C(=O)Nc2ccc(Cl)cc2)CC(C)(C)N1
CC50 at 96 h [3]: > 280000 nM
EC50 [4]: 6900 nM
selectivity ratio [5]: 8.7
EC50 [6]: 6500 nM
selectivity ratio [7]: > 43

Structure (SMILES): COc1ccnc2[nH]cc(C(=O)C(=O)N3CCN(C(=O)c4ccccc4)C[C@H]3C)c12
EC50 [8]: 2200 nM

Structure (SMILES): CNCc1ccc2c(c1)[C@H](NC(=O)C(=O)Nc1ccc(Cl)c(F)c1)[C@@H](CNC(=N)N)C2
EC50 [11]: 1600 nM

Structure (SMILES): CN(Cc1ccc2c(c1)[C@H](NC(=O)C(=O)Nc1ccc(Cl)c(F)c1)[C@@H](CNC(=N)N)C2)C(=N)N
EC50 [9]: 110 nM
EC50 [11]: 1300 nM

Structure (SMILES): CNCc1ccc2c(c1)[C@@H](CC[C@@H](O)CO)[C@H](CNC(=N)N)[C@H]2NC(=O)C(=O)Nc1ccc(Cl)c(F)c1
EC50 [10]: 22000 nM

Structure (SMILES): COc1cnc(-c2csc(CN(C)CCCN(C)C)n2)c2[nH]cc(C(=O)C(=O)N3CCC([C@@H](C#N)c4ccccc4)CC3)c12
EC50 [8]: 20 nM

Structure (SMILES): O=C(O)c1cc(-c2ccc(/C=C3\SC(=S)N(CCc4ccc(O)cc4)C3=O)o2)ccc1Cl
IC50 [1]: 830 nM
IC50 [2]: 830 nM

Structure (SMILES): Cc1nc(C(CN)NC(=O)c2ccc(-c3ccc4c(c3)OCO4)[nH]2)sc1CO (stereo unspecified)
CC50 at 72 h [12]: 146000 nM
CC50 at 96 h [13]: 193000 nM
EC50 [4]: 2300 nM
EC50 [14]: 3800 nM
selectivity ratio [5]: 63
selectivity ratio [7]: 51

Structure (SMILES): CC[C@H](C)[C@@H]1NC(=O)[C@H](CC(N)=O)NC(=O)[C@@H](N)CC(=O)NCCCC[C@@H](C(N)=O)NC(=O)[C@H](Cc2c[nH]c3ccccc23)NC(=O)[C@@H]2CC(n3cc(-c4ccc(-c5cccs5)cc4)nn3)CN2C1=O (stereo partly specified) (H-DNI[X1]WK-NH2; lactam 1-6)
EC50 [20]: 105 nM
CC50 at 24 h [21]: 100000 nM

Second part, led by results:

EC50 [9]: 7000 nM
Structure (SMILES): NCCNC(=O)N1CCC[C@H](C(=O)Nc2ccc(Cl)c(F)c2)C1

EC50 [10]: 18000 nM
Structure (SMILES): CCOC(=O)N1CCC[C@H](C(=O)Nc2ccc(Cl)c(F)c2)C1

IC50 [15]: 710 nM
IC50 [18]: 660 nM
Structure (SMILES): CC1(C)CC(NC(=O)C(=O)Nc2ccc(Cl)c(F)c2)CC(C)(C)N1C(=O)COc1ccc(CCN2C(=O)/C(=C/c3ccc(-c4ccc(Cl)c(C(=O)O)c4)o3)SC2=S)cc1
CC50 at 48 h [16]: 29000 nM
CC50 at 48 h [17]: 18000 nM

IC50 [19]: 1.5 nM
Structure (SMILES): COc1ccnc2[nH]cc(C(=O)C(=O)N3CCN(C(=O)c4ccccc4)CC3)c12

EC50 [10]: 8300 nM
Structure (SMILES): CCOC(=O)N1CCCC(C(=O)Nc2ccc(Cl)c(F)c2)C1 (racemic)
